Reference: patent US9011915B2, “Conveniently implantable sustained release drug compositions” (Ramscor, Inc., priority 2004, dated 2015)
Read-outs that look alike come from different tables or passages of the source. One block for each molecule: values may come before it.

Key:
[1] = ingested 650 mg 2-ABA, cited from earlier work; for maximum synovial fluid levels / time of maximum synovial fluid levels: human knee
[2] = test system: COX-1 and COC-2 enzymes; details: acetylation of COX enzymes, in the eye; cited from earlier work
[3] = cited from earlier work
[4] = cited from earlier work; remark: listed apart in the source
[5] = cited from earlier work; remark: listed apart in the source
[6] = In vivo release of rapamycin from TEAC formulation in vitreous cavity, LC-MS; set-up: species or system NZW rabbits; details: 5.0 mg rapamycin in 10:90 rapamycin:TEAC mixture
Method: Five (5.0) mg rapamycin contained in a 10:90 rapamycin:TEAC mixture were injected into the vitreous cavity of one eye in three 4.0-4.5 kg. NZW rabbits. Vitreous sampling was performed in each animal, and the concentration of released Rapamycin determined by liquid chromatography and mass spectrometry.

[7] = continuously exceeded over an extended period of time; cited from earlier work
[8] = 3:1 dexamethasone:ciprofloxacin in benzyl benzoate
Method: The vials for the release studies were labeled and the weight of each vial was recorded. To each vial was added 3-4 grams of 0.9% saline solution and the weight was recorded. Then the SRF was injected or placed at the bottom of the vial. The weight of the SRF was recorded. An additional amount of 0.9% saline solution was added to a total of 10 grams of saline. The resulting vial was kept in an incubator or water bath at 37° C. Samples were taken periodically to measure the release profile of dexamethasone or triamcinolone acetonide using a HPLC instrument. Sampling protocol was carried out according to the following procedure: Using a disposable pipette, 8 grams of the saline solution containing dexamethasone or triamcinolone acetonide was withdrawn carefully from each vial. 8 grams of 0.9% saline solution was then added to each vial. The vials were kept at 37° C. after sampling.
The HPLC analysis was carried out using a Beckman Gold Instrument with an autosampler. […] Calibrators and samples were injected onto a C18 column (Rainin, 250×4.6 mm) containing a guard column (C18, 4.6 mm×1 cm) and analyzed, respectively. […] The dexamethasone or triamcinolone acetonide (retention times, 6-4 minutes) concentration of each sample was calculated from the standard curve using the software of the Beckman Gold instrument.

[9] = In vivo release of dexamethasone from 25% dexamethasone in benzyl benzoate (DB) injected into posterior segment, vitreous humor HPLC; set-up: species or system rabbit; details: for mean vitreous level of dexamethasone: 25% formulation in benzyl benzoate
Method: Benzyl benzoate (BB) served as placebo.
The in vivo release of the DB composition was studied in twenty-four rabbits. Twenty-five μl of 25% DB was injected into the posterior segment of one eye of twelve animals and the contralateral eye received a placebo. Another twelve animals received 50 μl of the DB in one eye and 50 μl of the BB placebo in the second eye. Animals were euthanized at the appropriate time points and vitreous humor samples were removed surgically. Dexamethasone concentration was determined by high pressure liquid chromatography (HPLC) as described in Example 5.

[10] = test system: blood glucose levels; test: Injected versus transdermal delivery of insulin, blood glucose levels; type: in vivo, mouse
Method: The comparison of injected versus transdermal delivery of several formulation of insulin was studied in a mouse model. One mg of porcine insulin was injected IP (intraperitoneal) into a mouse. […] One mg of porcine insulin mixed with 0.1 ml of tocopherol acetate was applied topically on the skin of a shaved mouse.
Porcine insulin (20 mg) was mixed in 199 mg/ml of tocopheryl acetate and formed a paste (or gel) which and was applied to the backs of shaved albino mice as follows: Mouse #1 was treated with 39.8 mg of insulin/tocopherol acetate paste, equaling 3.6 mg of insulin; mouse #2 was treated with 75.2 mg of insulin/tocopherol acetate paste, equaling 6.9 mg of insulin. Tail blood glucose levels were determined by Home Diagnostics, Inc. True Track smart system at intervals depicted in FIG. 22.

[11] = 1 mg porcine insulin injected IP
[12] = 1 mg porcine insulin mixed with 0.1 ml tocopherol acetate, injected IP

Molecule: CC(=O)Oc1ccccc1C(=O)O [2-ABA, 2-acetyloxybenzoic acid]
maximum synovial fluid levels [1]: 2.5 µg/mL
time of maximum synovial fluid levels [1]: 19.4 min
maximum plasma levels [1]: 3.3 µg/mL
time of maximum plasma levels [1]: 7.7 min
time until gone in the blood [1]: 75 min
ID50 [2]: 0.9 to 9.0 µg/mL
combined 2-ABA/2-HBA levels in the plasma ([3]; ingestion of 0.650-1.3 g 2-ABA, humans): 20 to 100 µg/mL
fraction hydrolyzed to 2-HBA in the plasma ([3]; within 30 minutes): about 97%
time in which an initial level is halved in the vitreous ([4]; initial level of 4 μg/ml): 1.5 to 2 h
concentration of 2-ABA/2-HBA in the vitreous ([4]; rabbit eyes, at plasma levels of about 20-100 μg/ml): 5000 to 10000 ng/mL

Molecule: O=C(O)c1ccccc1O [2-HBA, 2-hydroxy benzoic acid]
maximum synovial fluid levels [1]: 14.5 µg/mL
time of maximum synovial fluid levels [1]: 21.9 min
maximum plasma levels [1]: 23 µg/mL
time of maximum plasma levels [1]: 10.9 min
2-HBA level ([5]; after 120 hours): 5 µg/mL
2-HBA level ([5]; in 20 hours): 20 µg/mL
2-HBA level, initial burst ([5]; within 6 hours): 640 µg/mL

duration of release of Rapamycin [6]: over five
Molecule: CO[C@H]1C[C@@H]2CC[C@@H](C)[C@@](O)(O2)C(=O)C(=O)N2CCCC[C@H]2C(=O)O[C@H]([C@H](C)C[C@@H]2CC[C@@H](O)[C@H](OC)C2)CC(=O)[C@H](C)/C=C(\C)[C@@H](O)[C@@H](OC)C(=O)[C@H](C)C[C@H](C)/C=C/C=C/C=C/1C [Rapamycin, rapamycin]

Molecule: CC1(C)O[C@@H]2C[C@H]3[C@@H]4CCC5=CC(=O)C=C[C@]5(C)[C@@]4(F)[C@@H](O)C[C@]3(C)[C@]2(C(=O)CO)O1 [TA, triamcinolone acetonide]
concentration above which harmful complications (glaucoma, cataracts, cytotoxicity) can arise [7]: exceed 10 μg/ml

duration of release [8]: sixty
Molecule: O=C(O)c1cn(C2CC2)c2cc(N3CCNCC3)c(F)cc2c1=O [ciprofloxacin]

mean vitreous level of dexamethasone ([9]; 25 μl injection, over a sixty day period): approximately 4.0 μg/ml
mean vitreous level of dexamethasone ([9]; 50 μl, over a three-month period): approximately 8.0 μg/ml
mean concentration of released dexamethasone in vitreous humor ([9]; high dose: 50 μl 25% DB (12 mg dexamethasone), Day 7 to Day 90): 5560 ng/mL
mean level of dexamethasone in vitreous humor ([9]; low dose: 25 μl 25% DB (6 mg dexamethasone), Day 7 to Day 60): 2800 ng/mL
concentration at 60 day ([9]; rabbit, vitreous humor, other: injected into the posterior segment of the eye, 6 mg, low dose: 25 μl 25% DB, end of the Day 7 to Day 60 period, read-out: mean level of dexamethasone in vitreous humor, declined to): 800 ng/mL
concentration at 90 day ([9]; rabbit, vitreous humor, other: injected into the posterior segment of the eye, 12 mg, high dose: 50 μl 25% DB, by Day 90, read-out: mean level of dexamethasone in vitreous humor): 1850 ng/mL
Molecule: C[C@@H]1C[C@H]2[C@@H]3CCC4=CC(=O)C=C[C@]4(C)[C@@]3(F)[C@@H](O)C[C@]2(C)[C@@]1(O)C(=O)CO [dexamethasone]

Molecule: porcine insulin: porcine insulin
recovery from hypoglycemia [10, 11]: never recovered
time to precipitous drop in glucose level [10, 11]: one-half
recovery from hypoglycemia [10, 12]: did not recover
time over which perceptible drop in glucose level was seen [10, 12]: up to 3 hours
time of lowest glucose level ([10]; 1 mg porcine insulin mixed with 0.1 ml tocopherol acetate, topically on shaved skin): 5.5 h
slow recovery to pre-treatment glucose levels after ([10]; transdermal insulin with tocopherol acetate): 24 to 48 h
